Source: patent publication US9556217B2, “Amphiphilic compounds” (WISCONSIN ALUMNI RESEARCH FOUNDATION, priority 2012, dated 2017)
Where two headings read alike, the source gives them in different places.

Legend:
[1] = Critical micelle concentration (fluorescent dye solubilization); assay type: physicochemical
Description: The “Critical Micelle Concentration” (CMC) refers to the concentration of a detergent (e.g., an amphiphile as described herein) in an aqueous solution at which the detergent molecules self-assemble into micelles. Below the CMC, detergents are mostly monomeric; above the CMC, micelle concentration increases linearly with detergent concentration. The CMC is dependent upon many factors and is detergent-specific. The CMC of a detergent can be determined experimentally by measuring the solubilization of a water-insoluble dye or fluorophore while varying the concentration of detergent. A CMC may also be determined by measuring the diminution of the surface tension of an aqueous solution as a function of detergent concentration (CMCs determined by either method correlate with each other). The CMC is determined by extrapolating the plot of solubilization vs. concentration (or surface tension vs. concentration) in the two linear regions above and below the CMC. Where the two lines intersect is the CMC. The CMC can also be determined by the method of Nugebauer, J. M. (1990), Methods in Enzymology, 182:239-253.
The four compounds were readily prepared on a multi-gram scale (see Examples 1 and 2 below, and FIGS. 13-15), as is necessary if they are to serve as research tools. All four are highly soluble in aqueous solution (>20 wt %) and have relatively low critical micelle concentrations (CMC; determined by fluorescent dye solubilization).

[2] = Hydrodynamic radius of micelles by dynamic light scattering; assay type: physicochemical; settings: Mean ± SD, n = 5
Description: These values are somewhat smaller than the CMC of DDM, which indicates a strong tendency of the new agents to self-assemble, and which can be advantageous for IMP handling because detrimental levels of non-micellar amphiphile can be avoided. Table 1 provides the hydrodynamic radius (Rh) of the micelles formed by each amphiphile, as determined by dynamic light scattering (DLS). The micelles formed by GLC amphiphiles are slightly smaller than those formed by DDM, while the micelles formed by GDN are slightly larger.

[3] = molecular target: T1, wild type β2AR (β2AR WT) (Homo sapiens, UniProt P07550); test: β2AR WT activity after extraction ([3H]-dihydroalprenolol binding); assay type: biochemical
T1 construct: made in house; host or cells: Sf9 insect cells (baculovirus); lysed cells and membranes extracted directly with amphiphile
T1 sequence (P07550 whole entry): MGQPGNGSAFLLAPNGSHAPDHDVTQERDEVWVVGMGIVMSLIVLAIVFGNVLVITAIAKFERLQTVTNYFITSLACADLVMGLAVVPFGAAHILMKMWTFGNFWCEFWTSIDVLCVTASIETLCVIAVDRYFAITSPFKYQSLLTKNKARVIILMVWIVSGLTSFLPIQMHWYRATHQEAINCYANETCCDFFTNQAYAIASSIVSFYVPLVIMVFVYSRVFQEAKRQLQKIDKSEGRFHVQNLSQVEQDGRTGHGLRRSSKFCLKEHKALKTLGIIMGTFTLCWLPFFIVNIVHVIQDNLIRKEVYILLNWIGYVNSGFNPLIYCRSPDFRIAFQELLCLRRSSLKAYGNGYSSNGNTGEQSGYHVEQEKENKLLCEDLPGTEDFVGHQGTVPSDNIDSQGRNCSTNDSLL
Description: In the examples discussed above, conventional detergents such as DDM were used to extract IMPs from the membrane, and then in most cases the solution of detergent-solubilized protein was diluted with amphiphile-containing solutions to evaluate the new agents. With this approach it is possible that the small amount of residual conventional detergent could affect protein stability. To exclude this possibility, GLC-3 and GDN were used to extract wild type β2AR (β2AR WT) (Kobilka, Trends in Pharmacological Sciences 2011, 32, 213-218) from the membrane. Receptor activity was measured via a binding assay involving the antagonist [^3H]-dihydroalprenolol. […] GDN is therefore highly suitable for GPCR extraction.
(§1) A gene encoding amino-terminally FLAG epitope tagged β2AR was expressed in Sf9 cells by baculovirus, with no ligand present during culture. Cells were infected at a density of 4×10^6 cells/mL and then cultured for 48 hours prior to harvesting by centrifugation. Cells were resuspended and lysed by osmotic shock with a low ionic strength buffer (20 mM Tris pH 7.5, 1 mM EDTA). The lysed cells were aliquoted 35 mg per aliquot, then frozen. For extraction tests, 300 μL of solubilization buffer (20 mM HEPES pH 7.5, 100 mM NaCl) containing each amphiphile was added to each aliquot, which was then homogenized by pipet followed by grinding with a glass dounce tissue homogenizer. After two-hour incubation at 4° C., samples were centrifuged at maximum speed in a tabletop microcentrifuge to pellet insoluble material. Supernatant was removed and assayed for protein concentration by DC protein assay (Bio-Rad).
The amount of functional receptor was quantified by incubation for 1 hour with 10 nM 3H dihydroalprenolol. Samples were then separated by gel filtration over G-50 resin and radioactivity was quantified by liquid scintillation. Nonspecific binding was measured in the presence of 10 μM alprenolol. Assays were performed in triplicate at time points indicated. G-50 filtration was performed in buffer containing 20 mM HEPES pH 7.5, 100 mM NaCl, 10-fold CMC of the detergent tested. All binding assays were performed with ice cold buffers.

[4] = tested on: δ-opioid receptor-T4L fusion (δOR-T4L); test: δOR-T4L activity after solubilization ([3H]-diprenorphine binding); assay type: biochemical; settings: extracted with 1.0 wt % of amphiphile
Description: We turned to a δ-opioid receptor-T4L fusion (δOR-T4L), another GPCR, to compare GDN with the recently reported amphiphile MNG-3 (P. S. Chae, et al., Nat. Methods 2010, 7, 1003-1008), which has proven to be essential for crystallization of several other GPCR constructs (Rasmussen, et al., Nature 2011, 469, 236-240; Rosenbaum, et al., Nature 2011, 469, 175-180; Rasmussen, et al., Nature 2011, 477, 540-541; Kruse, et al., Nature 2012, 482, 552-556; Haga, et al., Nature 2012, 482, 547-551). […] The ability of the new amphiphiles to stabilize membrane proteins thus allows for the ability to perform analyses and structural studies that could not be performed with other detergents such as DDM because harsher detergents (e.g., DDM) can remove important lipid moieties from the proteins, causing them to denature and rapidly loose activity.
FLAG epitope tagged δOR-T4L was expressed in Sf9 insect cells using baculovirus particles generated by the pFastBac vector system (Invitrogen). Insect cells were infected and cultured as for the β2AR and cells were lysed by osmotic shock as done for cells expressing β2AR. Lysed cells were used for extraction tests by adding 40 mg of cells to 200 μL of solubilization buffer (20 mM HEPES pH 7.5, 100 mM NaCl) containing each amphiphile. […] The amount of functional receptor after solubilization was quantified by incubation for 1 hour with 10 nM 3H diprenorphine. […]

[5] = molecular target: T2, β2AR WT (Homo sapiens, UniProt P07550); test: Extraction of β2AR WT from insect cell membranes; settings: 1 wt %; western blotting
T2 construct: made in house; host or cells: Sf9 insect cells (baculovirus); lysed cells and membranes extracted directly with amphiphile
T2 sequence (P07550 whole entry): as above
Description: (§2) The favorable MelB extraction performance of GDN led to the examination of this amphiphile for extraction of other IMPs. […] DDM and GDN were used to extract a CMP-Sia fusion protein bearing green fluorescent protein (GFP) at the C-terminus, after expression in Saccharomyces cerevisiae; the amount of solubilized protein was estimated by total fluorescence. GDN (2 wt %), DDM (1 wt %) and OG (1 wt %) gave ˜70%, ˜80% and ˜50% extraction yields, respectively.
(§3) The procedure was performed according to the protocol reported by Chae and coworkers (Nat. Methods 2010, 7, 1003-1008).
as §1, with “Supernatant was removed and assayed for protein concentration by DC protein assay (Bio-Rad).” left out

[6] = molecular target: T3, CMP-Sia fusion protein bearing green fluorescent protein (GFP) (Mus musculus, UniProt Q61420); test: CMP-Sia-GFP fusion solubilization (fluorescence); settings: 1 wt %, 1 hr at 4° C., total fluorescence
T3 construct: made in house; host or cells: Saccharomyces cerevisiae FGY217
Description: as §2, §3
CMP-Sia was expressed as a fusion protein with a C-terminal GFP in FGY217 Saccharomyces cerevisiae cells. Cell lysis was conducted by using a cell disrupter (Constant Systems) and the protein samples were subjected to centrifugation at 15,000 g for 10 mins to remove unbroken cells and debris. Subsequently, the membranes were harvested by ultracentrifugation at 150,000 g for 45 min. The membranes were resuspended in 50 mM Tris-HCl (pH 7.6), 1 mM EDTA, 0.6 M sorbitol and the protein concentration was estimated using a BCA kit (Pierce). The membranes were incubated with OG or DDM at 1.0%, or GDN at 2.0% for 1 hr at 4° C. A fluorescence value was measured for each sample before and after ultracentrifugation at 150,000 g for 1 h. The solubilization efficiency was calculated via the fluorescence measurements of the soluble supernatant/the total sample.

[7] = stated in the bR protocol; cited from earlier work

Structure (SMILES) | CMC [1] [µM] | CMC (wt %) [1] [wt %] | Rh (nm), hydrodynamic radius of micelles [2] [nm] | also measured
CO[C@@H]1CC[C@@]2(C)[C@H](CC[C@@H]3[C@@H]2CC[C@]2(C)[C@@H]([C@H](C)CCC(=O)NC(CO[C@@H]4OC(CO)C(O[C@@H]5OC(CO)[C@@H](O)[C@H](O)C5O)[C@@H](O)C4O)CO[C@@H]4OC(CO)[C@@H](O[C@H]5OC(CO)[C@@H](O)[C@H](O)C5O)[C@H](O)C4O)CC[C@@H]32)C1 (stereo partly drawn) [GLC-1] | ~52 | ~0.006 | 3.22 ± 0.03 | –
CO[C@@H]1CC[C@@]2(C)[C@H](CC[C@@H]3[C@@H]2CC[C@]2(C)C(C(C)CCCC(CO[C@@H]4OC(CO)C(O[C@@H]5OC(CO)[C@@H](O)[C@H](O)C5O)[C@@H](O)C4O)CO[C@@H]4OC(CO)[C@@H](O[C@H]5OC(CO)[C@@H](O)[C@H](O)C5O)[C@H](O)C4O)CC[C@@H]32)C1 (stereo partly drawn) [GLC-3] | ~7.1 | ~0.00077 | 3.27 ± 0.08 | β2AR WT initial activity ([3]; extracted with 1 wt % or 2 wt % amphiphile, [3H]-dihydroalprenolol binding): initial activity similar to that of DDM; β2AR WT activity over 72 hours ([3]; solubilized samples stored at 4° C.): activity was maintained over 72 hours
CCCCCCCCCCC(CCCCCCCCCC)(CO[C@@H]1O[C@H](CO)[C@@H](O[C@H]2O[C@H](CO)[C@@H](O)[C@H](O)[C@H]2O)[C@H](O)[C@H]1O)CO[C@@H]1O[C@H](CO)[C@@H](O[C@H]2O[C@H](CO)[C@@H](O)[C@H](O)[C@H]2O)[C@H](O)[C@H]1O [MNG-3, reference compound] | – | – | – | δOR-T4L ligand binding activity after solubilization [4]: higher activity than DDM-solubilized δOR-T4L
CCCCCCCCO[C@@H]1O[C@H](CO)[C@@H](O)[C@H](O)[C@H]1O [OG, octyl-β-D-glucoside, reference compound] | – | – | – | β2AR WT detected after extraction [5]: only a very small amount of β2AR WT was detected; CMP-Sia-GFP extraction yield [6]: ~50%
CCCCCCCCS[C@@H]1O[C@H](CO)[C@@H](O)[C@H](O)[C@H]1O [OTG, octyl-β-D-thioglucoside] | – | – | – | CMC [7]: 0.28 wt %
